# Target: LSD-1 enzyme (Homo sapiens (Human), UniProt O60341)
# Assay: LANCE LSD1/KDM1A demethylase assay (LSD1 histone demethylase biochemical assay)
# Settings: 1 nM LSD-1 enzyme, 1 hour preincubation at 25° C., 0.4 μM Biotin-labeled Histone H3 peptide substrate
row,SMILES,IC50 [nM]
1,"Cc1cc(-c2c(-c3ccc(C#N)cc3)cc(OC[C@@H]3CCCN(C)C3)c3cncn23)cc(F)c1C(C)O (stereo partly drawn) [Example 126, 4-(5-[3-fluoro-4-(1-hydroxyethyl)-5-methylphenyl]-8-{[(3R)-1-methylpiperidin-3-yl]methoxy}imidazo[1,5-a]pyridin-6-yl)benzonitrile]",≤ 50
2,"Cc1ncc(-c2c(-c3ccc(C#N)cc3)cc(OC[C@@H]3CCCN(C)C3)c3cncn23)cc1F [Example 127, 4-(5-(5-fluoro-6-methylpyridin-3-yl)-8-{[(3R)-1-methylpiperidin-3-yl]methoxy}imidazo[1,5-a]pyridin-6-yl)benzonitrile]",≤ 50
3,"CCN1CCC[C@@H](COc2cc(-c3ccc(C#N)cc3)c(-c3cc(C)c(CO)c(F)c3)n3cncc23)C1 [Example 128, 4-{8-{[(3R)-1-ethylpiperidin-3-yl]methoxy}-5-[3-fluoro-4-(hydroxymethyl)-5-methylphenyl]imidazo[1,5-a]pyridin-6-yl}benzonitrile]",≤ 50
4,"COCCN1CCC[C@@H](COc2cc(-c3ccc(C#N)cc3)c(-c3cc(C)c(CO)c(F)c3)n3cncc23)C1 [Example 129, 4-(5-[3-fluoro-4-(hydroxymethyl)-5-methylphenyl]-8-{[(3R)-1-(2-methoxyethyl)piperidin-3-yl]methoxy}imidazo[1,5-a]pyridin-6-yl)benzonitrile]",≤ 50
5,"COCCN1CCC[C@@H](COc2cc(-c3ccc(C#N)cc3)c(-c3cnc(C)c(C)c3)n3cncc23)C1 [Example 130, 4-(5-(5,6-dimethylpyridin-3-yl)-8-{[(3R)-1-(2-methoxyethyl)piperidin-3-yl]methoxy}imidazo[1,5-a]pyridin-6-yl)benzonitrile]",≤ 50
6,"CCN1CCC[C@@H](COc2cc(-c3ccc(C#N)cc3)c(-c3cnc(C)c(C)c3)n3cncc23)C1 [Example 131, 4-(5-(5,6-dimethylpyridin-3-yl)-8-{[(3R)-1-ethylpiperidin-3-yl]methoxy}imidazo[1,5-a]pyridin-6-yl)benzonitrile]",≤ 50
7,"CN1CCC[C@@H](COc2cc(-c3ccc(C#N)cc3)c(-c3cnn(C4CCC4)c3)n3cncc23)C1 [Example 134, 4-(5-(1-cyclobutyl-1H-pyrazol-4-yl)-8-{[(3R)-1-methylpiperidin-3-yl]methoxy}imidazo[1,5-a]pyridin-6-yl)benzonitrile]",≤ 50
8,"CN1C(=O)CCc2cc(-c3c(-c4ccc(C#N)cc4)nc(N4CCC(N(C)C)CC4)c4cncn34)ccc21 [Example 137, 4-[8-[4-(dimethylamino)piperidin-1-yl]-5-(1-methyl-2-oxo-1,2,3,4-tetrahydroquinolin-6-yl)imidazo[1,5-a]pyrazin-6-yl]benzonitrile]",≤ 50
9,"CN(C)C1CCN(c2nc(-c3ccc(C#N)cc3)c(-c3cc(F)c4c(c3)n(C)c(=O)n4C)n3cncc23)CC1 [Example 138, 4-(8-(4-(dimethylamino)piperidin-1-yl)-5-(7-fluoro-1,3-dimethyl-2-oxo-2,3-dihydro-1H-benzo[d]imidazol-5-yl)imidazo[1,5-a]pyrazin-6-yl)benzonitrile]",≤ 50
10,"CN(C)C1CCN(c2nc(-c3ccc(C#N)cc3)c(-c3cnn(C4CCC4)c3)n3cncc23)CC1 [Example 139, 4-{5-(1-cyclobutyl-1H-pyrazol-4-yl)-8-[4-(dimethylamino)piperidin-1-yl]imidazo[1,5-a]pyrazin-6-yl}benzonitrile]",≤ 50
11,"Cc1ncc(-c2c(-c3ccc(C#N)cc3)nc(N3CCC(N(C)C)CC3)c3cncn23)cc1CO [Example 142, 4-{8-[4-(dimethylamino)piperidin-1-yl]-5-[5-(hydroxymethyl)-6-methylpyridin-3-yl]imidazo[1,5-a]pyrazin-6-yl}benzonitrile]",≤ 50
12,"CN(C)C1CCN(c2nc(-c3ccc(C#N)cc3)c(-c3ccc4c(c3)nc(C(F)F)n4C)n3cncc23)CC1 [Example 143, 4-{5-[2-(difluoromethyl)-1-methyl-1H-benzimidazol-5-yl]-8-[4-(dimethylamino)piperidin-1-yl]imidazo[1,5-a]pyrazin-6-yl}benzonitrile]",≤ 50
13,"CN(C)C1CCN(c2nc(-c3ccc(C#N)cc3)c(-c3cnc4ccccc4c3)n3cncc23)CC1 [Example 144, 4-{8-[4-(dimethylamino)piperidin-1-yl]-5-quinolin-3-ylimidazo[1,5-a]pyrazin-6-yl}benzonitrile]",≤ 50
14,"CN(C)C1CCN(c2nc(-c3ccc(C#N)cc3)c(-c3ccc4ncccc4c3)n3cncc23)CC1 [Example 145, 4-{8-[4-(dimethylamino)piperidin-1-yl]-5-quinolin-6-ylimidazo[1,5-a]pyrazin-6-yl}benzonitrile]",≤ 50
15,"COc1ncc(-c2c(-c3ccc(C#N)cc3)nc(N3CCC(N(C)C)CC3)c3cncn23)cc1C#N [Example 148, 5-{6-(4-cyanophenyl)-8-[4-(dimethylamino)piperidin-1-yl]imidazo[1,5-a]pyrazin-5-yl}-2-methoxynicotinonitrile]",≤ 50
16,"Cc1cc(-c2c(-c3ccc(C#N)cc3)nc(N3CCC(N(C)C)CC3)c3cncn23)ccc1CO [Example 149, 4-{8-[4-(dimethylamino)piperidin-1-yl]-5-[4-(hydroxymethyl)-3-methylphenyl]imidazo[1,5-a]pyrazin-6-yl}benzonitrile]",≤ 50
17,"Cc1nc2cc(-c3c(-c4ccc(C#N)cc4)cc(OC[C@@H]4CCCN(C)C4)c4cncn34)ccc2n1C [Example 153, 4-(5-(1,2-dimethyl-1H-benzimidazol-5-yl)-8-{[(3R)-1-methylpiperidin-3-yl]methoxy}imidazo[1,5-a]pyridin-6-yl)benzonitrile]",≤ 50

# Source: US10047086B2, “Imidazopyridines and imidazopyrazines as LSD1 inhibitors” (Incyte Corporation, priority 2014, dated 2018)
